Assay results: ChEMBL document CHEMBL1150509, “Cycloalkylpiperazines as HIV-1 protease inhibitors: enhanced oral absorption” (Bioorg Med Chem Lett, 1995)

Key:
[1] = system: Human immunodeficiency virus 1; assay: Tested in vitro against MT-4 human lymphoid cells infected with the type IIIb isolate; format: functional; conditions: Human immunodeficiency virus 1, lymphoid; read-out: CIC95
[2] = molecular target: Human immunodeficiency virus type 1 protease (Human immunodeficiency virus 1, UniProt Q72874); assay: Tested in vitro for the ability to inhibit HIV-1 protease
[3] = system: Human immunodeficiency virus 1; assay: Ratio of CIC95 to that of IC50 was determined; format: functional

CC(C)[C@@H]1[C@H](OC(=O)N[C@@H](Cc2ccccc2)[C@H](O)CN2CCN(C3CCCCCC3)C[C@H]2C(=O)NC(C)(C)C)CCS1(=O)=O
IC95 [1]: 200 nM

CC(C)[C@@H]1[C@H](OC(=O)N[C@@H](Cc2ccccc2)[C@H](O)CN2CCN(C3CCC3)C[C@H]2C(=O)NC(C)(C)C)CCS1(=O)=O
IC95 [1]: 50 nM

CCCCCCCCN1CCN(C[C@@H](O)[C@H](Cc2ccccc2)NC(=O)O[C@@H]2CCS(=O)(=O)[C@@H]2C(C)C)[C@H](C(=O)NC(C)(C)C)C1
IC95 [1]: 200 nM

CC(C)[C@@H]1[C@H](OC(=O)N[C@@H](Cc2ccccc2)[C@H](O)CN2CCN(C3CCSC3)C[C@H]2C(=O)NC(C)(C)C)CCS1(=O)=O (some centres not stated)
IC95 [1]: > 200 nM
IC50 [2]: 8.3 nM

CC(C)[C@@H]1[C@H](OC(=O)N[C@@H](Cc2ccccc2)[C@H](O)CN2CCN(C3CC(c4ccccc4)C3)C[C@H]2C(=O)NC(C)(C)C)CCS1(=O)=O (some centres not stated)
Ratio [3]: 26
IC95 [1]: 100 nM
IC50 [2]: 3.8 nM

CC(C)[C@@H]1[C@H](OC(=O)N[C@@H](Cc2ccccc2)[C@H](O)CN2CCN(CC(C)(C)C)C[C@H]2C(=O)NC(C)(C)C)CCS1(=O)=O
IC95 [1]: 200 nM

CC(C)[C@@H]1[C@H](OC(=O)N[C@@H](Cc2ccccc2)[C@H](O)CN2CCN(C(C)C)C[C@H]2C(=O)NC(C)(C)C)CCS1(=O)=O
IC95 [1]: > 200 nM

CC(C)[C@@H]1[C@H](OC(=O)N[C@@H](Cc2ccccc2)[C@H](O)CN2CCN(C3CCOCC3)C[C@H]2C(=O)NC(C)(C)C)CCS1(=O)=O
IC95 [1]: > 200 nM
IC50 [2]: 34.6 nM

CC(C)[C@@H]1[C@H](OC(=O)N[C@@H](Cc2ccccc2)[C@H](O)CN2CCN(C3CC3)C[C@H]2C(=O)NC(C)(C)C)CCS1(=O)=O
IC95 [1]: 100 nM

CC(C)[C@@H]1[C@H](OC(=O)N[C@@H](Cc2ccccc2)[C@H](O)CN2CCN(C3CCSCC3)C[C@H]2C(=O)NC(C)(C)C)CCS1(=O)=O
IC95 [1]: 200 nM

CC(C)[C@@H]1[C@H](OC(=O)N[C@@H](Cc2ccccc2)[C@H](O)CN2CCN(C3CCCC3)C[C@H]2C(=O)NC(C)(C)C)CCS1(=O)=O
IC95 [1]: 150 nM

CCCN1CCN(C[C@@H](O)[C@H](Cc2ccccc2)NC(=O)O[C@@H]2CCS(=O)(=O)[C@@H]2C(C)C)[C@H](C(=O)NC(C)(C)C)C1
IC95 [1]: 100 nM

CC(C)[C@@H]1[C@H](OC(=O)N[C@@H](Cc2ccccc2)[C@H](O)CN2CCN(C3Cc4ccccc4C3)C[C@H]2C(=O)NC(C)(C)C)CCS1(=O)=O
Ratio [3]: 19
IC95 [1]: 100 nM
IC50 [2]: 5.3 nM

CC(C)CN1CCN(C[C@@H](O)[C@H](Cc2ccccc2)NC(=O)O[C@@H]2CCS(=O)(=O)[C@@H]2C(C)C)[C@H](C(=O)NC(C)(C)C)C1
IC95 [1]: 100 nM

CCC(CC)N1CCN(C[C@@H](O)[C@H](Cc2ccccc2)NC(=O)O[C@@H]2CCS(=O)(=O)[C@@H]2C(C)C)[C@H](C(=O)NC(C)(C)C)C1
IC95 [1]: > 200 nM

CC(C)[C@@H]1[C@H](OC(=O)N[C@@H](Cc2ccccc2)[C@H](O)CN2CCN(C3CCCCC3)C[C@H]2C(=O)NC(C)(C)C)CCS1(=O)=O
IC95 [1]: 200 nM
